The values that follow come from US5424426A, “Dithiolanylglycine-containing HIV protease inhibitors of the hydroxyethylene isostere type” (Bayer Aktiengesellschaft, priority 1992, dated 1995).

Test [1] concerns HIV. In words: HIV infection in cell culture, syncytia formation in PBLs. It counts as cell-based. To be noted: HIV-infected normal human blood lymphocytes (PBLs); 50% suppression of virus-induced syncytia. As for the experimental part: (§1) The HIV test was carried out with slight modifications by the method of Pauwels et al. [cf. Journal of Virological Methods 20, (1988), 309-321].
Normal human blood lymphocytes (PBLs) were enriched on Ficoll-Hypaque and stimulated in RPMI 1640, 20% foetal calf serum containing phytohaemagglutinin (90 μg/ml) and interleukin-2 (40 U/ml). For infection with the infectious HIV, PBLs were pelleted and the cell pellet was then suspended in 1 ml of HIV virus adsorption solution and incubated for 1 hour at 37° C.
The virus adsorption solution was centrifuged and the infected cell pellet taken up in growth medium so that a concentration of 1×10^5 cells per ml was established. The cells infected in such a way were pipetted at 1×10^4 cells/well into the wells of 96-well microtitre plates.
The first vertical row of the microtitre plate contained only growth medium and cells which had not been infected, but otherwise had been treated exactly as described above (cell control). The second vertical row of the microtitre plate contained only HIV-infected cells (virus control) in growth medium. The other wells contained the compounds according to the invention in different concentrations, starting from the wells of the 3rd vertical row of the microtitre plate, from which the test substances were diluted 2^10 times in steps of two.
The test batches were incubated at 37° C. until in the untreated virus control the syncytia formation typical of HIV occurred (between day 3 and 6 after infection), which was then assessed by microscopy.
(§2) The IC50 values were determined as the concentrations of the […] at which 50% (about 10 syncytia) of the virus-induced syncytia were suppressed by the treatment with the compound according to the invention.

The target of test [2] is T1, HIV protease (HIV-1) (Human immunodeficiency virus type 1 group M subtype B, UniProt P04585).
T1 construct: purified HIV protease was incubated with synthetic peptide
In words: HIV-specific protease enzyme test (RP-HPLC analysis of synthetic peptide cleavage). It counts as biochemical. To be noted: purified HIV protease, synthetic Gag cleavage-site peptide. As for the experimental part:
The results of the examples listed below were determined by the HIV test system described in the following references [cf. Hansen, J., Billich, S., Schulze, T., Sukrow, S. and Molling, K. (1988), EMBO Journal, Vol. 7, No. 6, pp. 1785-1791]: purified HIV protease was incubated with synthetic peptide which imitates a cleavage site in the Gag precursor protein and represents an in vivo cleavage site of the HIV protease. The resulting cleavage products of the synthetic peptide were analysed by means of reverse phase high performance liquid chromatography (RP-HPLC). The IC50 values given relate to the substance concentration which causes a 50% strength inhibition of the protease activity under the above-mentioned test conditions.

In test [3] the test system is HIV. In words: HIV infection in cell culture, H-9 cells. To be noted: HIV-infected H-9 cells. It counts as cell-based. Here is the method: as §1, §2

pIC50: −log10 of the molar value. Where a name gives a salt, the structure may show the parent alone. Where only a bound is given, the exact number is not on record here.

The pIC50 is −log10 of the IC50, conventionally taken in molar units. Turning to `CC[C@H](C)[C@H](NC(=O)C(C[C@H](O)[C@H](CC1CCCCC1)NC(=O)[C@@H](N)C1SCCS1)C(C)C)C(=O)Nc1ccccn1` (stereo partly drawn) [Example 2, 1-{(2R,S;4S,5S)-5-[(2R)-2-Amino-2-[2-(1,3-dithiolan-2-yl)]ethanoyl]-amino-6-cyclohexyl-4-hydroxy-2-(1-methyl)ethyl-hexanoyl}-S-isoleucinyl-2-pyridylamide dihydrochloride], the results for the pIC50 in test [1] and in test [2] were 5.00 and 8.05 to 8.89, respectively.
Taken in the same sequence, the figures for `CC[C@H](C)[C@H](NC(=O)[C@@H](Cc1ccccc1)C[C@H](O)[C@H](CC1CCCCC1)NC(=O)[C@@H](NC(=O)OC(C)(C)C)C1SCCS1)C(=O)Nc1ccccn1` [Example 4, 1-{(2S,4S,5S)-5-[(2R)-N-(tert-Butoxycarbonyl)-2-amino-2-[2-(1,3-dithiolan-2-yl)]ethanoyl]amino-6-cyclohexyl-4-hydroxy-2-(phenyl)methyl-hexanoyl}-S-isoleucinyl2-pyridylamide] were 6.00 and 7.10 to 7.80.
For “1-}(2S,4S,5S)-5-[(2S)-3-(tert-Butylsulphonyl)-2-(1-naphthylmethyl)propanoyl]-(2R)-N-(tert-butoxycarbonyl)-2-amino-2-[2-(1,3-dithiolan-2-yl)]ethanoyl]amino-6-cyclohexyl-4-hydroxy-2-(1-methyl)ethyl-hexanoyl}-S-isoleucinyl-2-pyridylamide [Example 9]”, the pIC50 in test [3] is 7.96; in test [1], 7.40; in test [2] it was 8.05 to 9.00.
Turning to `C=CCC(C[C@H](O)[C@H](CC1CCCCC1)NC(=O)[C@@H](NC(=O)OC(C)(C)C)C1SCCS1)C(=O)N[C@H](C(=O)Nc1ccccn1)[C@@H](C)CC` (stereo partly drawn) [Example 5, 1-{(2R,S,4S,5S)-5-[(2R)-N-(tert-Butoxycarbonyl)-2-amino-2-[2-(1,3-dithiolan-2-yl)]ethanoyl]amino-6-cyclohexyl-4-hydroxy-2-(2-propenyl)-hexanoyl}-S-isoleucinyl-2-pyridylamide], the pIC50 in test [1] was 6.40; in test [2] it was 8.05 to 8.85.
On the same counts, the results for `CC[C@H](C)[C@H](NC(=O)[C@H](Cc1ccccc1)C[C@H](O)[C@H](CC1CCCCC1)NC(=O)[C@@H](NC(=O)OC(C)(C)C)C1SCCS1)C(=O)Nc1ccccn1` [Example 3, 1-{(2R,4S,5S)-5-[(2R)-N-(tert-Butoxycarbonyl)-2-amino-2-[2-(1,3-dithiolan-2-yl)]ethanoyl]amino-6-cyclohexyl-4-hydroxy-2-(phenyl)methyl-hexanoyl}-S-isoleucinyl-2-pyridylamide] are 6.00 and 7.10 to 7.89.
On the same counts, the results for “1-{(2R,4S,5S)-5-[(2S)-3-(tert-Butylsulphonyl)-2-(1-naphthylmethyl)propanoyl]-(2R)-N-(tert-butoxycarbonyl)-2-amino-2-[2-(1,3-dithiolan-2-yl)ethanoyl]amino-6-cyclohexyl-4-hydroxy-2-(1-methyl)ethyl-hexanoyl}-S-isoleucinyl-2-pyridylamide [Example 8]” are 6.00 and 8.05 to 8.92.
Taken in the same sequence, the figures for “1-{(2R,S,4S,5S) -5-[(2R)-N-(tert-Butoxycarbonyl)-2-amino-2-[2-(1,3-dithiolan-2-yl)]ethanoyl]amino-6-cyclohexyl-4-hydroxy-2-(1-methyl)ethyl-hexanoyl}-S-isoleucinyl2-pyridylamide [Example 1]” were < 6.00 and 8.05 to 8.85.
